Results reported in PubChem BioAssay AID2060902 (Molecular Pharmacology Branch, DTP, NCI, 2025).

Test system: 485368-065-R3-J5-PDC spheroids with HUVEC/MSC, viability
Assay: Anticancer human tumor 485368-065-R3-J5-PDC patient-derived pancreatic carcinoma cell line growth inhibition [RAS]
Settings: for IC50: curve of first compound; for viability, T/C: stronger effect = lower value
How it was run: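 Multi-cell-type spheroids: tumor cells plus HUVEC endothelial cells and mesenchymal stem cells. RAS-pathway inhibitors were combined with targeted agents, each dosed in half-log steps down from clinical Cmax, or from 10 microM when Cmax was unknown.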
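Also: spheroids exposed to agents for seven days before readout.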

For `O=C(c1ccc(F)c(F)c1Nc1ccc(I)cc1F)N1CC(O)([C@@H]2CCCCN2)C1` + CCn1c(-c2cccnc2C(C)OC)c2c3cc(ccc31)N1CCOC(CC(NC(=O)C(C(C)C)N(C)C(=O)C3(F)CCN(C(=O)C#CC(C)(C)N(C)C)CC3)C(=O)N3CCCC(N3)C(=O)OCC(C)(C)C2)C1, the IC50 (second compound 0.000949 µM) was 58.6 nM, the IC50 (second compound 0.003 µM) was 66.5 nM and the IC50 (second compound 0.00949 µM) was 59.5 nM. It also gave an IC50 (second compound 0.03 µM) of 54.5 nM, an IC50 (second compound 0.0949 µM) of 65.5 nM and an IC50 (second compound 0.3 µM) of 40.4 nM. For the same molecule, the viability, T/C (second compound 0.000949 µM, first compound 0.00316 µM) was 101%, the viability, T/C (second compound 0.000949 µM, first compound 0.01 µM) was 78.4% and the viability, T/C (second compound 0.000949 µM, first compound 0.0316 µM) was 64.1%. The viability, T/C (second compound 0.000949 µM, first compound 0.1 µM) was 37.7%, the viability, T/C (second compound 0.000949 µM, first compound 0.316 µM) was 26.4% and the viability, T/C (second compound 0.000949 µM, first compound 1 µM) was 11.7%. It also gave a viability, T/C (second compound 0.003 µM, first compound 0.00316 µM) of 97.3%, a viability, T/C (second compound 0.003 µM, first compound 0.01 µM) of 88.4% and a viability, T/C (second compound 0.003 µM, first compound 0.0316 µM) of 60.1%. It also gave a viability, T/C (second compound 0.003 µM, first compound 0.1 µM) of 40.7%, a viability, T/C (second compound 0.003 µM, first compound 0.316 µM) of 31.5% and a viability, T/C (second compound 0.003 µM, first compound 1 µM) of 13.9%. For the same molecule, the viability, T/C (second compound 0.00949 µM, first compound 0.00316 µM) was 87%, the viability, T/C (second compound 0.00949 µM, first compound 0.01 µM) was 73.6% and the viability, T/C (second compound 0.00949 µM, first compound 0.0316 µM) was 60.9%. The viability, T/C (second compound 0.00949 µM, first compound 0.1 µM) was 39.4%, the viability, T/C (second compound 0.00949 µM, first compound 0.316 µM) was 30.1% and the viability, T/C (second compound 0.00949 µM, first compound 1 µM) was 14%. For the same molecule, the viability, T/C (second compound 0.03 µM, first compound 0.00316 µM) was 89.6%, the viability, T/C (second compound 0.03 µM, first compound 0.01 µM) was 76.8% and the viability, T/C (second compound 0.03 µM, first compound 0.0316 µM) was 62.5%. The viability, T/C (second compound 0.03 µM, first compound 0.1 µM) was 36.8%, the viability, T/C (second compound 0.03 µM, first compound 0.316 µM) was 24% and the viability, T/C (second compound 0.03 µM, first compound 1 µM) was 15%. The viability, T/C (second compound 0.0949 µM, first compound 0.00316 µM) was 88.3%, the viability, T/C (second compound 0.0949 µM, first compound 0.01 µM) was 75.3% and the viability, T/C (second compound 0.0949 µM, first compound 0.0316 µM) was 64%. It also gave a viability, T/C (second compound 0.0949 µM, first compound 0.1 µM) of 39.8%, a viability, T/C (second compound 0.0949 µM, first compound 0.316 µM) of 28.5% and a viability, T/C (second compound 0.0949 µM, first compound 1 µM) of 10%. The viability, T/C (second compound 0.3 µM, first compound 0.00316 µM) was 91.4%, the viability, T/C (second compound 0.3 µM, first compound 0.01 µM) was 74.7% and the viability, T/C (second compound 0.3 µM, first compound 0.0316 µM) was 51.1%. It also gave a viability, T/C (second compound 0.3 µM, first compound 0.1 µM) of 36.3%, a viability, T/C (second compound 0.3 µM, first compound 0.316 µM) of 23.5% and a viability, T/C (second compound 0.3 µM, first compound 1 µM) of 8.18%.
